# Results as given in patent US9119884B2, “LLP2A-bisphosphonate conjugates for osteoporosis treatment” (The Regents of the University of California, priority 2010, dated 2015).
# Experiments:
# [1] = test system: 10-week-old ovariectomized (OVX) mice; assay: Ovariectomized (OVX) mouse model; assay type: in vivo; settings: for maximum stress: femur three-point bending; for maximum stress / cortical bone thickness: single IV injection of conjugate or four weeks of PTH
# From the text: FIG. 21 depicts histomorphometric analyses of the 5th lumbar vertebral bodies after LLP2A-Ale treatment of 10-week-old ovariectomized (OVX) mice, showing increases in osteoblast numbers, activities and bone formation rate/bone surface (BFR/BS) post-treatment. Analyses included trabecular bone area (%), osteoblast surface (Ob/BS), mineralizing surface (MS/BS) activities and BFR/BS (P<0.05).
# Representative fluorescent images from the trabecular bone at the 5th LVB (Top panel: white arrowheads illustrate osteoblasts; Bottom panel: yellow arrows illustrate double labeled trabecular bone surfaces).
# FIG. 23 depicts histomorphometry analyses of the right mid-femurs included bone formation at the endosteal (Ec) or periosteal (Ps.) bone surfaces, and cortical bone thickness of 10-week-old ovariectomized (OVX) mice. […] Three-point bending was performed on left femurs to obtain maximum stress of the femurs.
# Short yellow arrows illustrated double labeled endocortical bone surfaces. (a, p<0.05 versus Sham; b, P<0.05 vs. OVX+PBS, c, P<0.05 vs. OVX+LLP2A; d, P<0.05 vs. OVX+Ale. Data are represented as Mean±SD).
# [2] = test system: C57BL/6 mice; assay: Guiding GFP-labeled mouse MSCs to bone; assay type: in vivo; settings: for osteocalcin levels: 0.9 nmol/mouse I.P. one hour after GFP-MSC I.V.
# Method: LLP2A-Ale or LLP2A-Ale (1) were dissolved in 0.9% normal saline and injected I.P. to the mice one hour after MSC at a final solution of 0.9 nmol/mouse. Mice were sacrificed either at 3 days or 3 weeks. Osteocalcin, a bone formation marker, was measured at both 3 days and 3 weeks post-treatments. The lumbar vertebral bodies from the 3-day treatment groups were frozen and sectioned with cryostat. The sections were then stained with anti-GFP antibody. The transplanted MSCs were stained in brown.
# [3] = test system: bone marrow cells undergoing osteogenic differentiation; assay: Rainbow bead cell-binding assay; assay type: cell-based, mouse; settings: cells cultured in osteogenic medium for 7 days, incubated with rainbow beads
# Method: Mouse MSCs were purchased from Invitrogen (Cat#S1502-100), cultured in osteogenic medium for 7 days and incubated with rainbow beads for one hour. […] Original magnification 10× on the right and 20× on the left of the top panel.
# A new color-encoding method that facilitates high-throughput screening of OBOC combinatorial libraries was developed. This method differs from the traditional methods used to monitor integrin expressions in the MSCs, i.e., the use of antibody-based fluorescence-activated cell sorting (FACS) or immunoblotting. In the present method, polymer beads displaying chemical compounds or families of compounds were stained with oil-based organic dyes that are used as coding tags. […] These rainbow beads were prepared in a multiplex manner such that each ligand reacted to one or a series of integrins that were coded one color, See FIG. 7 (Luo, J., et al., J Comb Chem, 2008, 10(4): p. 599-604). This rainbow bead technique was then applied to determine the integrin profile on the cell surfaces.
# In FIG. 7, bone marrow cells were cultured in osteogenic medium for 7 days and incubated with rainbow beads. The purple beads that coded with LLP2A, the ligand with high affinity and specificity against α4β1, were covered with layers of cells identified by green arrows. […]
# [4] = test system: NOD/SCID/MPSVII mice; assay: huMSC transplantation with LLP2A-Ale in immunodeficient mice; assay type: in vivo, mouse; settings: vertebral body, three weeks after single injection of huMSC with or without compound
# From the text: Human MSCs (huMSCs) were obtained and injected together with LLP2A-Ale to immunodeficient mice, NOD/SCID/mucopolysaccharidosis type VII (MPSVII). This mouse strain lacked the β-glucuronidase (GUSB) enzyme. The donor cells could be easily detected using biochemical detection of β-glucuronidase (See Meyerrose, T. E., et al., Stem Cells, 2007. 25(1): p. 220-7; Meyerrose, T. E., et al., Stem Cells, 2008. 26(7): p. 1713-22). At three-month of age, the mice received a single intravenous (i.v.) injection of either vehicle (100 μl PBS/mouse), huMSCs (5×10^5/100 μl/PBS/mouse), huMSCs+LLP2A (5 nM/mouse) or huMSCs+LLP2A-Ale (500 ng/mouse; total compound weight 3.5 μg, with alendronate concentration of 500 ng/mouse). The alendronate dose we used for the study was approximately one-fifth of the therapeutic dose for the treatment of osteoporosis (See Colon-Emeric, C. S., JAMA, 2006, 296(24): p. 2968-9; Ma, Y. L., et al., Endocrinology, 2003. 144(5): p. 2008-15). […] HuMSC, as shown by GUSB+red stain, were only present at the trabecular bone surface in the LLP2A-Ale-treated group (lower panel). There was no demonstrable GUSB activity in the lung, liver, kidney and LVB that received PBS (top panels) or huMSCs (middle panel). Cancellous bone mass in the vertebral body was—more than 40% higher in the group treated with MSC+LLP2A-Ale (cancellous bone volume, BV/TV 13.9±2.2%) compared to PBS (BV/TV 9.4±1.7%), MSC (BV/TV 10.2±1.9%) or MSC+LLP2A (BV/TV 10.5±0.5%) controls three weeks after a single injection of huMSC and LLP2A-Ale.
# In FIG. 8, Three-month-old MSPVII mice received a single intravenous injection of either of PBS, huMSC (5×10^5) or huMSC+LLP2A or LLP2A-Ale. The mice were sacrificed 24 hours later. Following sacrifice, small portions of organ including lumbar vertebral bodies (LVB) were harvested and frozen in Optimal Cutting Temperature embedding media. The sections were stained using naphthol-AS-BI-β-Dglucuronide (GUSB) as a substrate. Representative sections from lung, liver, kidney and lumbar vertebral (LVB) trabecular bone regions were presented. […] Isolated GUSB-positive cells were also observed within bone marrow of the LVB in […] group.
# The NOD-SCID MPSVII strain was the result of extensive backcrossing of the mutant GUSB allele from the B6.C-H-2^bm1/ByBirgus^mps/+ mouse onto the NOD/LtSz-scid background. Animals were bred and maintained at the Stem Cell Department of the UC Davis Medical Center under approved animal care protocols. Affected animals were generated by breeding mice heterozygous for the MPSVII mutation. Homozygous GUSB-deficient pups were identified at birth by biochemical analysis of toe tissue.
# Serum levels of the amino terminal propeptide of type 1 procollagen (P1NP), osteocalcin and C-terminal telopeptides of type I collagen (CTX-I) were measured using mouse sandwich ELISA kits from Biomedical Technologies (Stroughton, Mass.) or Immunodiagnostic System (Fountain Hills, Ariz.). The manufacturer's protocols were followed and all samples were assayed in duplicate. A standard curve was generated from each kit and the absolute concentrations were extrapolated from the standard curve. The coefficients of variations (CVs) for inter-assay and intra-assay measurements were less than 10% for all assays and are similar to the manufacturer's references (Yao, W., et al., Arthritis Rheum, 2008, 58(6): p. 1674-86; Yao, W., et al., Arthritis Rheum, 2008, 58(11): p. 3485-3497).
# After fixation in 4% paraformaldehyde, the right distal femurs, mid-femurs and the 5th lumbar vertebral bodies were dehydrated in graded concentrations of ethanol and xylene and embedded un-decalcified in methyl methacrylate. The frontal sections (8 μm thick) were cut using a vertical bed microtome (Leica/Jung 2265) and affixed to slides coated with a 2% gelatin solution. Unstained 8-μm-thick sections were used for assessing fluorochrome labeling and dynamic changes in bone. […]
# [5] = biological target: integrin α4β1 (Homo sapiens, UniProt P05556+P13612); settings: cited from earlier work
# Sequence of integrin α4β1 (P13612 34-1032): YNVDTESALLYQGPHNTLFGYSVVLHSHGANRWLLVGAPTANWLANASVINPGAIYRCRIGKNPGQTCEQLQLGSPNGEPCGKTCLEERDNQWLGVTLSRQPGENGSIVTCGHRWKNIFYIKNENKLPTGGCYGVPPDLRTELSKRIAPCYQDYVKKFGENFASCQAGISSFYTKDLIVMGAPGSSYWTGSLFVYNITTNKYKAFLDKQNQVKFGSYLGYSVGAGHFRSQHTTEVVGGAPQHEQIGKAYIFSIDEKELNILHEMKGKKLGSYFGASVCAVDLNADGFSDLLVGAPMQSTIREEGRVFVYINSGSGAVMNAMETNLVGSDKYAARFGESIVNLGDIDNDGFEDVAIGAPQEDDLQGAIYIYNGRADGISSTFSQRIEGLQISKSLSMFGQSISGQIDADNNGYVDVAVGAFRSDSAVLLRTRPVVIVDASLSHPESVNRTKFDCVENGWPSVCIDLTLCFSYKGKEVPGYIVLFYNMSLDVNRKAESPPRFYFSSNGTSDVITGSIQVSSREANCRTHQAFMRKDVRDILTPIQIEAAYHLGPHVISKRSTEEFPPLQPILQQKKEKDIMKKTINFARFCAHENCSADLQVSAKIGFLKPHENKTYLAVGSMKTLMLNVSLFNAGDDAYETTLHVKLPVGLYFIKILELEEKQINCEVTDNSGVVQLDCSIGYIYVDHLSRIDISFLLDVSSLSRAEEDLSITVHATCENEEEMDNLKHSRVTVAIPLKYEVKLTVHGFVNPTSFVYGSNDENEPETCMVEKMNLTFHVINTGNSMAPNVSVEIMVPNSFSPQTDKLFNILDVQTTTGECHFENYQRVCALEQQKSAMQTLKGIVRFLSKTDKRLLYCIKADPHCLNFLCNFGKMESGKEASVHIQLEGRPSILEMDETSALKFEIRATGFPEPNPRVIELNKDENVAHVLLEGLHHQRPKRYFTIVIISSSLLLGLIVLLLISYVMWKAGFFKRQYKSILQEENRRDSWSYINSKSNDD
# Sequence of integrin α4β1 (P05556 21-798): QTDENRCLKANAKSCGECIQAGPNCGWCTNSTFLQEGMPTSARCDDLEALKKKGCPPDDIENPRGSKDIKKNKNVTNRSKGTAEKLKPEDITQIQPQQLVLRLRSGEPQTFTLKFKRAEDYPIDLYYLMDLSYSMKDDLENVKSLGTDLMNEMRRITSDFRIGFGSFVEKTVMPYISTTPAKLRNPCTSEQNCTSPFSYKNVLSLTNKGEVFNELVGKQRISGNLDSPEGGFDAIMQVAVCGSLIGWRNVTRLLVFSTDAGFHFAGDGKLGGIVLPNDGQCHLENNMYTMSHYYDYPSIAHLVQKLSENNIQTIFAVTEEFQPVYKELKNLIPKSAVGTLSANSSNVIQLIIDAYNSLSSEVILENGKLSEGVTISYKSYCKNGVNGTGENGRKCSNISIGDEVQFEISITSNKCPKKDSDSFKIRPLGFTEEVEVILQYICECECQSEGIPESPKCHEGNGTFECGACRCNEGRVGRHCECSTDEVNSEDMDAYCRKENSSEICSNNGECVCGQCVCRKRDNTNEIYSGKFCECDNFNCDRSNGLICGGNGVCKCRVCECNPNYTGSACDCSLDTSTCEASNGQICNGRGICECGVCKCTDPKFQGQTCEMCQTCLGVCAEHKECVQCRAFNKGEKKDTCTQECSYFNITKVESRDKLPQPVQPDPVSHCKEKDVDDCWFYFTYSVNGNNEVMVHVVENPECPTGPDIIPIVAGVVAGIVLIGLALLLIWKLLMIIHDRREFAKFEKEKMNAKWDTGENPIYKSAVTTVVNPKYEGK
# [6] = test system: 129SvJ mice; assay type: in vivo, mouse
molecule,measurement,setting,value
"NCCCC(O)(P(=O)(O)O)P(=O)(O)O [Ale, Alendronate, reference compound]",maximum stress,[1],not significantly altered
same,cortical bone thickness,[1]; mid-femur,not significantly altered
LLP2A-Alendronate (1) [LLP2A-Ale (1)],location of transplanted MSCs (anti-GFP staining),"[2]; lumbar vertebral bodies, three days",observed within bone marrow and adjacent to the trabecular bone surfaces
same,osteocalcin levels,[2]; three days,significantly increased
same,osteocalcin levels,[2]; three weeks,significantly increased
"LLP2A: bisaryl urea peptidomimetic, highly potent and selective ligand for the activated form of α4β1 integrin [reference compound]",cell binding to ligand-coded rainbow beads (affinity),[3],high affinity
same,"cancellous bone volume, BV/TV",[4],10.5±0.5%
same,IC50,[5],2 pM
same,bone formation rate at endocortical and periosteal surfaces of the mid-femurs,[6]; four weeks after injections,significantly increased
same,proliferating cell populations (BrdU),"[6]; two days after i.v. injection, lumbar vertebral sections",increased the number of proliferating cell populations within the marrow cavity
same,maximum stress,[1],not significantly altered
same,cortical bone thickness,[1]; mid-femur,not significantly altered
"PTH: PTH, comparator treatment given for four weeks in OVX mice (peptide, UniProt P01270 32-115, looked up, Parathyroid hormone) Parathyroid hormone: SVSEIQLMHNLGKHLNSMERVEWLRKKLQDVHNFVALGAPLAPRDAGSQRPRKKEDNVLVESHEKSLGEADKADVNVLTKAKSQ",maximum stress,[1],not significantly altered
same,endocortical bone formation,"[1]; mid-femur, vs OVX",increases
same,cortical bone thickness,[1]; mid-femur,not significantly altered
